Reference: US11433053B2, “LSD1 inhibitor and preparation method and application thereof” (CSPC ZHONGQI PHARMACEUTICAL TECHNOLOGY (SHIJIAZHUANG) CO., …, priority 2017, dated 2022)

Experiments:
human LSD1 = human LSD1 (Homo sapiens (Human), UniProt O60341); test: Evaluation of enzyme activity: LSD1 fluorescence coupling enzyme assay (HRP/Amplex Red); type: biochemical; conditions: human LSD1, histone H3(1-21)K4me2 peptide 10 μM, 30 min pre-incubation
Protocol: The purpose of this test is to test the in vitro inhibitory activities of the compounds against LSD1. The enzyme used in this experiment was human LSD1, and the standard substrate was histone H3(1-21)K4me2 peptide (10 μM). HCI-2509 (SP2509) was used as reference compound, and the fluorescence coupling enzyme assay was employed. The production of FAD-dependent H2O2 as a result of demethylase activity of LSD1 was measured by coupling with HRP and Amplex Red. Compounds as well as control compound HCl-2509 were tested in 10-dose IC50 mode with a 3-fold serial dilution in duplicate starting at 10 μm. All compounds were pre-incubated 30 mins with enzyme before added substrate to start reaction. Fluorescence measurement: Ex/Em=535/590 by EnVision.
The test compound's inhibitory activities against LSD11 was classified as: + for IC50≤50 nM; ++ for IC50>50 nM and ≤100 nM; +++ for IC50>100 nM and ≤500 nM, and the results are shown in Table 1.

H1417 cells = test: Cell proliferation inhibitory activity on H1417 cells (CellTiter-Glo, 10 days); type: cell-based, human; conditions: Homo sapiens; for IC50: NCI-H1417, 240 h, H1417 cells, 10 days incubation; for Emax: NCI-H1417, H1417 cells, highest percentage inhibition of cell viability, read-out: Maximum inhibition percentage (%)
Protocol: Experimental purposes: To test the proliferation inhibitory activities of the test compounds on H1417 cells.
Experimental materials: RPMI 1640 medium, fetal bovine serum, Promega CellTiter-Glo reagent. The H1417 cell line purchased from ATCC. Envision Multi-Label Analyzer (PerkinElmer).
Experimental method: H1417 cells were seeded in a black 384-well plate, 1000 cells per well in […] of cell suspension. The test compounds were diluted 3-fold with Epmotion to the 10th concentration i.e, the compounds were diluted from 10 mmol to […], and a double duplicate well experiment was set. 198 μL medium was added to the middle plate, according to the corresponding position, 2 μL gradient diluted compounds were added to the middle plate. The mixture was mixed evenly and transferred 20 μL per well to the cell plates. The cell plates were incubated in a carbon dioxide incubator for 10 days. 25 μL of Promega CellTiter-Glo reagent per well was added to the cell plate and the mixture was incubated for 10 minutes at room temperature to stabilize the luminescence signal. Readings were performed by PerkinElmer Envision multi-label analyzer.
Data analysis: The original data was converted to the inhibition rate by the equation (Max-Ratio)/(Max-Min)*100%, and the value of IC50 can be obtained by curve fitting with four parameters. (Model 205 in XLFIT5, iDBS)
The growth inhibitory activities of the test compounds on H1417 cells were classified as + for IC50≤100 nM; ++ for IC50>100 nM and ≤500 nM; +++ for IC50>500 nM and ≤1000 nM; the highest percentage inhibition of cell viability was classified as: […]; 90%>B≥70%; 70%>C≥50%.

IC50 (human LSD1) | IC50 (H1417 cells) | Structure (SMILES) | Emax (H1417 cells)
100 to 500 nM | ≤ 100 nM | N#CC1(CN[C@H]2CC2c2ccccc2)CC1 (some centres unmarked) [Example 1] | 90 to 100%
≤ 50 nM | ≤ 100 nM | NCC1(CN[C@H]2CC2c2ccccc2)CC1 (some centres unmarked) [Example 4] | 50 to 70%
100 to 500 nM | 500 to 1000 nM | CCNCC1(CN[C@H]2CC2c2ccccc2)CC1 (some centres unmarked) [Example 6] | 50 to 70%
50 to 100 nM | 100 to 500 nM | N#CC1(CN[C@H]2CC2c2ccccc2)CCC1 (some centres unmarked) [Example 8] | 50 to 70%
≤ 50 nM | ≤ 100 nM | NCC1(CN[C@H]2CC2c2ccccc2)CCC1 (some centres unmarked) [Example 9] | 70 to 90%
≤ 50 nM | 500 to 1000 nM | Clc1ccc(-c2noc(C3(CN[C@H]4CC4c4ccccc4)CC3)n2)cc1 (some centres unmarked) [Example 69] | 50 to 70%
≤ 50 nM | 100 to 500 nM | Clc1ccc(-c2nnc(C3(CN[C@H]4CC4c4ccccc4)CC3)o2)cc1 (some centres unmarked) [Example 70] | 90 to 100%
≤ 50 nM |  | Cn1cc2c(n1)CN(CC1(CN[C@H]3CC3c3ccccc3)CC1)C2 (some centres unmarked) [Example 109] | 
≤ 50 nM |  | Cn1ncc2c1CN(CC1(CN[C@H]3CC3c3ccccc3)CC1)C2 (some centres unmarked) [Example 110] | 
100 to 500 nM |  | O=C(O)[C@H](Cc1ccccc1)NCC1(CN[C@@H]2C[C@H]2c2ccccc2)CC1 [Example 112] | 
100 to 500 nM |  | CN(C)[C@H]1CC[C@H](c2nc(C3(CN[C@@H]4C[C@H]4c4ccccc4)CC3)no2)CC1 [Example 115] | 
≤ 50 nM |  | c1ccc(C2C[C@@H]2NCC2(c3ccccc3)CCCC2)cc1 (some centres unmarked) [Example 121] | 
≤ 50 nM |  | c1ccc(C2C[C@@H]2NCC2(c3noc(-c4ccc(-n5cnnc5)cc4)n3)CCC2)cc1 (some centres unmarked) [Example 136] | 
50 to 100 nM |  | c1ccc([C@H]2C[C@@H]2NCC2(c3noc([C@@H]4CCCNC4)n3)CC2)cc1 [Example 139] | 
≤ 50 nM |  | N[C@H]1CCC[C@@H](c2nc(C3(CN[C@@H]4C[C@H]4c4ccccc4)CC3)no2)C1 [Example 148] | 
≤ 50 nM |  | O=C(O)[C@H]1C[C@@H](c2nc(C3(CN[C@@H]4C[C@H]4c4ccccc4)CC3)no2)C1 [Example 150] | 
100 to 500 nM |  | N[C@@H](Cc1nc(C2(CN[C@@H]3C[C@H]3c3ccccc3)CC2)no1)C(=O)O [Example 152] | 
100 to 500 nM |  | CC(C)[C@H](N)c1nc(C2(CN[C@@H]3C[C@H]3c3ccccc3)CC2)no1 [Example 154] | 
≤ 50 nM |  | NC1CCN(C(=O)c2nc(C3(CN[C@@H]4C[C@H]4c4ccccc4)CC3)no2)CC1 [Example 160] | 
≤ 50 nM |  | O=C(O)c1ccc(CN2CCC(Cc3nc(C4(CN[C@H]5CC5c5ccccc5)CC4)no3)CC2)cc1 (some centres unmarked) [Example 164] | 
50 to 100 nM |  | O=C(O)c1ccc(CN2CCC(c3nc(C4(CN[C@@H]5C[C@H]5c5ccccc5)CC4)no3)CC2)cc1 [Example 169] | 
100 to 500 nM |  | O=C(O)c1ccc(CN2CCC(c3nc(C4(CN[C@H]5C[C@@H]5c5ccccc5)CC4)no3)CC2)cc1 [Example 170] | 

IC50 (human LSD1) | IC50 (H1417 cells) | Structure (SMILES) | Emax (H1417 cells)
≤ 50 nM |  | COC(=O)[C@H]1CC[C@H](c2nc(C3(CN[C@H]4C[C@@H]4c4ccccc4)CC3)no2)CC1 [Example 172] | 
100 to 500 nM |  | O=C(O)C1CC2(C1)CC(c1nc(C3(CN[C@H]4CC4c4ccccc4)CC3)no1)C2 (some centres unmarked) [Example 173] | 
100 to 500 nM |  | O=C(O)[C@H]1CC[C@@H](c2nc(C3(CN[C@H]4C[C@@H]4c4ccccc4)CC3)no2)CC1 [Example 175] | 
100 to 500 nM |  | O=C(O)C12CCC(c3nc(C4(CN[C@H]5C[C@@H]5c5ccccc5)CC4)no3)(CC1)CC2 [Example 177] | 
≤ 50 nM |  | O=C(O)c1ccc(-c2nc(C3(CN[C@H]4CC4c4ccccc4)CC3)no2)cc1 (some centres unmarked) [Example 181] | 
≤ 50 nM |  | Fc1ccccc1-c1nc(C2(CN[C@H]3CC3c3ccccc3)CC2)no1 (some centres unmarked) [Example 185] | 
≤ 50 nM |  | CC(C)Oc1ccc(-c2nc(C3(CN[C@H]4CC4c4ccccc4)CCC3)no2)cc1C#N (some centres unmarked) [Example 189] | 
100 to 500 nM |  | O=C(O)c1ccc(CNC2(CN[C@H]3C[C@@H]3c3ccccc3)CC2)cc1 [Example 200] | 
50 to 100 nM |  | CC1(C)CCN(CC2(CN[C@H]3C[C@@H]3c3ccccc3)CC2)C1 [Example 202] | 
100 to 500 nM |  | O=C(O)c1ccc(CN2CC(c3nc(C4(CN[C@H]5C[C@@H]5c5ccccc5)CC4)no3)C2)cc1 [Example 205] | 
50 to 100 nM |  | c1ccc([C@H]2C[C@@H]2NCC2(CN3CCC3)CC2)cc1 [Example 211] | 
100 to 500 nM |  | C[C@H]1CCCN1CC1(CN[C@H]2C[C@@H]2c2ccccc2)CC1 [Example 212] | 
100 to 500 nM |  | O=C(O)c1ccc(CN2CCC(c3nc(C4(CN[C@H]5C[C@@H]5c5ccccc5)CC4)no3)C2)cc1 (some centres unmarked) [Example 215] | 
100 to 500 nM |  | CN1CCC(c2nc(C3(CN[C@H]4C[C@@H]4c4ccccc4)CC3)no2)CC1=O (some centres unmarked) [Example 218] | 
100 to 500 nM |  | C[C@@H]1CN(CC2(CN[C@H]3CC3c3ccccc3)CC2)[C@@H](C)CN1C (some centres unmarked) [Example 221] | 
100 to 500 nM |  | O=C(O)[C@@H]1CCN1CC1(CN[C@@H]2C[C@H]2c2ccccc2)CC1 [Example 228] | 
50 to 100 nM |  | c1ccc([C@@H]2C[C@H]2NCC2(c3noc(C4CCNCC4)n3)CC2)cc1 [Example 231] | 
≤ 50 nM |  | NC[C@H]1CC[C@H](c2nc(C3(CN[C@@H]4C[C@H]4c4ccccc4)CC3)no2)CC1 [Example 239] | 
50 to 100 nM |  | N[C@H]1CC[C@H](Cc2nc(C3(CN[C@@H]4C[C@H]4c4ccccc4)CC3)no2)CC1 [Example 240] | 
100 to 500 nM |  | N[C@H]1CC[C@H](c2nnc(C3(CN[C@@H]4C[C@H]4c4ccccc4)CC3)o2)CC1 [Example 243] | 
≤ 50 nM |  | CC1(N)CCC(c2nc(C3(CN[C@@H]4C[C@H]4c4ccccc4)CC3)no2)CC1 (some centres unmarked) [Example 245] | 
100 to 500 nM |  | O=C(O)C1CCN(c2nc(C3(CN[C@@H]4C[C@H]4c4ccccc4)CC3)no2)CC1 [Example 253] | 

Structure (SMILES) | IC50 (human LSD1) | IC50 (H1417 cells) | Emax (H1417 cells)
c1ccc(C2C[C@@H]2NCC2(c3cccnc3)CCC2)cc1 (some centres unmarked) [Example 119] | ≤ 50 nM |  | 
c1ccc(C2C[C@@H]2NCC2(c3ccccc3)CCC2)cc1 (some centres unmarked) [Example 122] | ≤ 50 nM |  | 
Clc1ccc(C2(CN[C@H]3CC3c3ccccc3)CCC2)cc1 (some centres unmarked) [Example 123] | ≤ 50 nM |  | 
c1ccc(C2C[C@@H]2NCC2(c3noc(-c4ccccn4)n3)CCC2)cc1 (some centres unmarked) [Example 125] | ≤ 50 nM |  | 
FC(F)(F)c1ccnc(-c2nc(C3(CN[C@H]4CC4c4ccccc4)CCC3)no2)c1 (some centres unmarked) [Example 126] | ≤ 50 nM |  | 
c1ccc([C@H]2C[C@@H]2NCC2(c3noc(-c4cncnc4)n3)CCC2)cc1 [Example 128] | 50 to 100 nM |  | 
c1ccc(C2C[C@@H]2NCC2(c3noc(-c4cccnc4)n3)CCC2)cc1 (some centres unmarked) [Example 130] | ≤ 50 nM |  | 
FC(F)(F)c1cc(-c2nc(C3(CN[C@H]4CC4c4ccccc4)CCC3)no2)ccn1 (some centres unmarked) [Example 131] | ≤ 50 nM |  | 
O=C(O)c1ccccc1-c1nc(C2(CN[C@H]3C[C@@H]3c3ccccc3)CCC2)no1 [Example 134] | 100 to 500 nM |  | 
O=C(O)c1cccc(-c2nc(C3(CN[C@H]4CC4c4ccccc4)CCC3)no2)c1 (some centres unmarked) [Example 135] | 100 to 500 nM |  | 
c1ccc([C@H]2C[C@@H]2NCC2(c3cc([C@H]4CCCNC4)on3)CCC2)cc1 [Example 138] | 50 to 100 nM |  | 
Cc1oc(C2(CN[C@H]3C[C@@H]3c3ccccc3)CCC2)nc1C(=O)O [Example 186] | 100 to 500 nM |  | 
Fc1ccc(-c2nc(C3(CN[C@H]4CC4c4ccccc4)CCC3)no2)c(F)c1 (some centres unmarked) [Example 187] | ≤ 50 nM |  | 
O=C(O)c1ccc(-c2nc(C3(CN[C@H]4CC4c4ccccc4)CCC3)no2)cc1 (some centres unmarked) [Example 188] | ≤ 50 nM |  | 
N#Cc1cc(F)cc(-c2nc(C3(CN[C@H]4CC4c4ccccc4)CCC3)no2)c1 (some centres unmarked) [Example 190] | ≤ 50 nM |  | 
Fc1cc(F)c(-c2nc(C3(CN[C@H]4CC4c4ccccc4)CCC3)no2)c(F)c1 (some centres unmarked) [Example 191] | ≤ 50 nM |  | 
Cc1sc(C2(CN[C@H]3CC3c3ccccc3)CCC2)nc1C(=O)O (some centres unmarked) [Example 194] | 100 to 500 nM |  | 
N[C@H]1CC[C@@H](c2nc(C3(CN[C@@H]4C[C@H]4c4ccccc4)CCC3)no2)CC1 [Example 209] | ≤ 50 nM |  | 
C/C(=N\NC(=O)c1cccc(S(=O)(=O)N2CCOCC2)c1)c1cc(Cl)ccc1O [HCI-2509, reference compound] | ≤ 50 nM |  | 
